Measurements as given in patent US8173653B2, “Pyridiazinone derivatives for the treatment of tumours” (Merck Patent Gesellschaft MIT Beschraenkter Haftung, priority 2005, dated 2012).

target: T1, Met kinase (Homo sapiens, UniProt P08581); test: Met kinase inhibition (enzyme assay), flashplate method; format: biochemical
T1 construct: 6His (N); purchased Upstate 14-526; host or cells: insect cells (Sf21; S. frugiperda), baculovirus
Procedure: Flashplate Method (Met Kinase)
The test plates used are 96-well Flashplate® microtitre plates from Perkin Elmer (Cat. No. SMP200). The components of the kinase reaction described below are pipetted into the assay plate. The Met kinase and the substrate poly Ala-Glu-Lys-Tyr, (PAGLT, 6:2:5:1), are incubated for 3 hrs at room temperature with radioactively labelled ^33P-ATP in the presence and absence of test substances in a total volume of 100 μl. The reaction is terminated using 150 μl of a 60 mM EDTA solution. After incubation for a further 30 min at room temperature, the supernatants are filtered off with suction, and the wells are washed three times with 200 μl of 0.9% NaCl solution each time. The measurement of the bound radioactivity is carried out by means of a scintillation measuring instrument (Topcount NXT, Perkin-Elmer).
The full value used is the inhibitor-free kinase reaction. This should be approximately in the range 6000-9000 cpm. The pharmacological zero value used is staurosporin in a final concentration of 0.1 mM. The inhibitory values (IC50) are determined using the RS1_MTS program.
Kinase reaction conditions per well: • 30 μl of assay buffer • 10 μl of substance to be tested in assay buffer with 10% of DMSO • 10 μl of ATP (final concentration 1 μM cold, 0.35 μCi of ^33P-ATP) • 50 μl of Met kinase/substrate mixture in assay buffer; (10 ng of enzyme/well, 50 ng of pAGLT/well)
Assay Buffer: • 50 mM HEPES • 3 mM magnesium chloride • 3 μM sodium orthovanadate • 3 mM manganese(II) chloride • 1 mM dithiothreitol (DTT) • pH=7.5 (to be set using sodium hydroxide)

T1 sequence (P08581 974-1390 limits assumed): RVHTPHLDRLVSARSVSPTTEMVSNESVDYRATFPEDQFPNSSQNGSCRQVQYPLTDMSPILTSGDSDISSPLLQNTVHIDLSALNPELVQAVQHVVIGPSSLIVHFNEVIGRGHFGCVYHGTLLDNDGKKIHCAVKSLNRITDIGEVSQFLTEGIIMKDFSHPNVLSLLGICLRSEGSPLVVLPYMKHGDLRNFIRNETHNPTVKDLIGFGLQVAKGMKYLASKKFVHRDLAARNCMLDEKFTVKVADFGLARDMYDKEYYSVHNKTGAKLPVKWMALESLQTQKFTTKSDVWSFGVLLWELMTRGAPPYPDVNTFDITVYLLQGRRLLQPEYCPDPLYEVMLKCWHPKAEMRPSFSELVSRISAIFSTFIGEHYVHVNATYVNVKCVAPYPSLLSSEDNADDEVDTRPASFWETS

IC50, 10 to 1000 nM:
CN(C)CCCCOC(=O)Nc1cccc(Cn2nc(-c3cc(F)cc(F)c3)ccc2=O)c1 [A110, 4-Dimethylaminobutyl {3-[3-(3,5-difluorophenyl)-6-oxo-6H-pyridazin-1-ylmethyl]phenyl}carbamate]
O=C(Nc1cccc(Cn2nc(-c3cc(F)cc(F)c3)ccc2=O)c1)OCC1CCNCC1 [A156, Piperidin-4-ylmethyl {3-[3-(3,5-difluorophenyl)-6-oxo-6H-pyridazin-1-ylmethyl]phenyl}carbamate]
CCN(CC)CCCOC(=O)Nc1cccc(Cn2nc(-c3cc(F)cc(F)c3)ccc2=O)c1 [A109, 3-Diethylaminopropyl {3-[3-(3,5-difluorophenyl)-6-oxo-6H-pyridazin-1-ylmethyl]phenyl}carbamate]
O=C(Nc1cccc(Cn2nc(-c3cc(F)cc(F)c3)ccc2=O)c1)OCCCN1CCNCC1 [A145, 3-Piperazin-1-ylpropyl {3-[3-(3,5-difluorophenyl)-6-oxo-6H-pyridazin-1-ylmethyl]phenyl}carbamate]
CN1CCN(CCCCOC(=O)Nc2cccc(Cn3nc(-c4cc(F)cc(F)c4)ccc3=O)c2)CC1 [A103, 4-(4-Methylpiperazin-1-yl)butyl {3-[3-(3,5-difluorophenyl)-6-oxo-6H-pyridazin-1-ylmethyl]phenyl}carbamate]
CN(C)CCCOC(=O)Nc1cccc(Cn2nc(-c3cccc(C#N)c3)ccc2=O)c1 [A61, 3-Dimethylaminopropyl {3-[3-(3-cyanophenyl)-6-oxo-6H-pyridazin-1-ylmethyl]phenyl}carbamate]
O=c1ccc(-c2ccc(F)cc2)nn1Cc1ccc2nsnc2c1 [A14]
CC(=O)Nc1cccc(Cn2nc(-c3cccc(O)c3)ccc2=O)c1 [A2, N-{3-[3-(3-hydroxyphenyl)-6-oxo-6H-pyridazin-1-ylmethyl]phenyl}acetamide]
N#Cc1cccc(-c2ccc(=O)n(Cc3cccc(NC(=O)OCCCN4CCOCC4)c3)n2)c1 [A88, 3-Morpholin-4-ylpropyl{3-[3-(3-cyanophenyl)-6-oxo-6H-pyridazin-1-ylmethyl]phenyl}carbamate]
CNCCCOC(=O)Nc1cccc(Cn2nc(-c3cc(F)cc(F)c3)ccc2=O)c1 [A142, 3-methylaminopropyl {3-[3-(3,5-difluorophenyl)-6-oxo-6H-pyridazin-1-ylmethyl]phenyl}carbamate]
O=C(Nc1cccc(Cn2nc(-c3cccs3)ccc2=O)c1)OCCCN1CCOCC1 [A71, 3-Morpholin-4-ylpropyl [3-(6-oxo-3-thiophen-2-yl-6H-pyridazin-1-ylmethyl)phenyl]carbamate]
CN1CCN(CCCOC(=O)Nc2cccc(Cn3nc(-c4cccc(C#N)c4)ccc3=O)c2)CC1 [A107, 3-(4-Methylpiperazin-1-yl)propyl {3-[3-(3-cyanophenyl)-6-oxo-6H-pyridazin-1-ylmethyl]phenyl}carbamate]
COc1ccc(-c2ccc(=O)n(Cc3cccc(NC(C)=O)c3)n2)cc1OC [A4]
O=c1ccc(-c2ccc(F)cc2)nn1Cc1ccc2c(c1)OCO2 [A12]
CCOC(=O)Nc1cccc(Cn2nc(-c3cccs3)ccc2=O)c1 [A19]
CN(C)CCCOC(=O)Nc1cccc(Cn2nc(-c3ccc(Cl)cc3)ccc2=O)c1 [A15, 3-dimethylaminopropyl {3-[3-(4-chlorophenyl)-6-oxo-6H-pyridazin-1-ylmethyl]phenyl}carbamate]
CN(C)CCCOC(=O)Nc1cccc(Cn2nc(-c3cccc(Cl)c3)ccc2=O)c1 [A17]
CCOC(=O)Nc1cccc(Cn2nc(-c3cccc(Br)c3)ccc2=O)c1 [A6]
CC(=O)Nc1cccc(Cn2nc(-c3ccc(F)cc3)ccc2=O)c1 [A7]
O=C(Nc1cccc(Cn2nc(-c3cc(F)c(F)c(F)c3)ccc2=O)c1)OCCCN1CCOCC1 [A78, 3-Morpholin-4-ylpropyl {3-[6-oxo-3-(3,4,5-trifluorophenyl)-6H-pyridazin-1-ylmethyl]phenyl}carbamate]
CN1CCN(CCOC(=O)Nc2cccc(Cn3nc(-c4ccc(F)c(F)c4)ccc3=O)c2)CC1 [A92, 2-(4-Methylpiperazin-1-yl)ethyl {3-[3-(3,4-difluorophenyl)-6-oxo-6H-pyridazin-1-ylmethyl]phenyl}carbamate]
CN1CCCC1CCOC(=O)Nc1cccc(Cn2nc(-c3cc(F)cc(F)c3)ccc2=O)c1 (stereo not shown) [A105, 2-(1-Methylpyrrolidin-2-yl)ethyl {3-[3-(3,5-difluorophenyl)-6-oxo-6H-pyridazin-1-ylmethyl]phenyl}carbamate]
O=c1[nH]c2ccc(Cn3nc(-c4cccc(F)c4)ccc3=O)cc2[nH]1 [A127, 5-[3-(3-fluorophenyl)-6-oxo-6H-pyridazin-1-ylmethyl]-1,3-dihydrobenzimidazol-2-one]
CN1CCCC(COC(=O)Nc2cccc(Cn3nc(-c4cc(F)cc(F)c4)ccc3=O)c2)C1 (stereo not shown) [A106, 1-Methylpiperidin-3-ylmethyl {3-[3-(3,5-difluorophenyl)-6-oxo-6H-pyridazin-1-ylmethyl]phenyl}carbamate]
CCNC(=O)Nc1cccc(Cn2nc(-c3ccc(F)cc3)ccc2=O)c1 [A18, 1-ethyl-3-{3-[3-(4-fluorophenyl)-6-oxo-6H-pyridazin-1-ylmethyl]phenyl}urea]
O=c1[nH]c2ccc(Cn3nc(-c4cc(F)cc(F)c4)ccc3=O)cc2[nH]1 [A169, 5-[3-(3,5-Difluorophenyl)-6-oxo-6H-pyridazin-1-ylmethyl]-1,3-dihydrobenzimidazol-2-one]
CCOC(=O)Nc1cccc(Cn2nc(-c3cccc(Cl)c3)ccc2=O)c1 [A10]
CCOC(=O)Nc1cccc(Cn2nc(-c3ccccc3)ccc2=O)c1 [A9]
CN1CCN(CCCOC(=O)Nc2cccc(Cn3nc(-c4cc(F)c(F)c(F)c4)ccc3=O)c2)CC1 [A101, 3-(4-Methylpiperazin-1-yl)propyl {3-[6-oxo-3-(3,4,5-trifluorophenyl)-6H-pyridazin-1-ylmethyl]phenyl}carbamate]
O=c1ccc(-c2cc(F)cc(F)c2)nn1Cc1ccc2[nH]ncc2c1 [A161, 6-(3,5-difluorophenyl)-2-(1H-indazol-5-ylmethyl)-2H-pyridazin-3-one]
COCCCOC(=O)Nc1cccc(Cn2nc(-c3cc(F)cc(F)c3)ccc2=O)c1 [A75, 3-Methoxypropyl {3-[3-(3,5-difluorophenyl)-6-oxo-6H-pyridazin-1-ylmethyl]phenyl}carbamate]
CCNC(=O)Nc1cccc(Cn2nc(-c3cccc(Cl)c3)ccc2=O)c1 [A20]
CNCCCCOC(=O)Nc1cccc(Cn2nc(-c3cc(F)cc(F)c3)ccc2=O)c1 [A155, 4-Methylaminobutyl {3-[3-(3,5-difluorophenyl)-6-oxo-6H-pyridazin-1-ylmethyl]phenyl}carbamate]
O=C(Nc1cccc(Cn2nc(-c3cc(F)cc(F)c3)ccc2=O)c1)OCCCN1CCCC1 [A74, 3-Pyrrolidin-1-ylpropyl {3-[3-(3,5-difluorophenyl)-6-oxo-6H-pyridazin-1-ylmethyl]phenyl}carbamate]
CCOC(=O)Nc1cccc(Cn2nc(-c3ccc(Cl)cc3)ccc2=O)c1 [A3, ethyl {3-[3-(4-chlorophenyl)-6-oxo-6H-pyridazin-1-ylmethyl]phenyl}carbamate]
O=C(Nc1cccc(Cn2nc(-c3cc(F)cc(F)c3)ccc2=O)c1)OCCN1CCNCC1 [A143, 2-Piperazin-1-ylethyl {3-[3-(3,5-difluorophenyl)-6-oxo-6H-pyridazin-1-ylmethyl]phenyl}carbamate]
CCOC(=O)Nc1cccc(Cn2nc(-c3cccc(F)c3)ccc2=O)c1 [A38]
O=C(Nc1cccc(Cn2nc(-c3cc(F)c(F)c(F)c3)ccc2=O)c1)OCCN1CCOCC1 [A95, 2-Morpholin-4-ylethyl {3-[6-oxo-3-(3,4,5-trifluorophenyl)-6H-pyridazin-1-ylmethyl]phenyl}carbamate]
CCOC(=O)Nc1cccc(Cn2nc(-c3ccc(F)cc3)ccc2=O)c1 [A5]
O=C(Nc1cccc(Cn2nc(-c3ccc(F)c(F)c3)ccc2=O)c1)OCCN1CCOCC1 [A81, 2-Morpholin-4-ylethyl {3-[3-(3,4-difluorophenyl)-6-oxo-6H-pyridazin-1-ylmethyl]phenyl}carbamate]
